According to US20210386367A1, “DEVICES AND SYSTEMS FOR GASTROINTESTINAL MICROBIOME DETECTION AND MANIPULATION” (Progenity, Inc., priority 2018, published 2021):
≈ marks a conversion by molar mass, not a printed value. Like-named read-outs stand apart in the source and are kept apart here.

How the values were obtained:
E. coli ATCC 25922 = assay: Time-kill assay; assay type: cell-based, Escherichia coli; conditions: 2×, 4×, 8× MIC; 2, 6, 24 hr
Klebsiella spp. = assay: Broth microdilution MIC, 50 clinical isolates (20 K. oxytoca, 30 K. pneumoniae); assay type: cell-based
Method: Minimal inhibitory concentration (MIC) values were determined by broth microdilution or agar dilution in accordance with guidelines from the Clinical and Laboratory Standards Institute (CLSI; (1) “Methods for Dilution Antimicrobial Susceptibility Tests for Bacteria That Grow Aerobically; Approved Standard; 11th ed.” CLSI standard M07-A11, 2018; (2) “Performance Standards for Antimicrobial Susceptibility Testing; Twenty-Eighth Informational Supplement,” CLSI document M100-S28, 2018; and (3) “Methods for Antimicrobial Susceptibility Testing of Anaerobic Bacteria; Approved Standard—Eighth Edition,” CLSI document M11-A8, 2012).
Tested aerobically by broth microdilution: • Escherichia coli, n=50 • Klebsiella spp., n=50 • Pseudomonas aeruginosa, n=50 • Streptococcus spp., n=50 • Staphylococcus aureus, n=50 • Enterococcus faecalis, n=50 • Enterobacter aerogenes, n=50 • Proteus mirabilis, n=50
Broth microdilution testing of aerobic bacteria was conducted in cation-adjusted Mueller Hinton broth (MHBII). For testing streptococci, lysed horse blood (LHB) was added to MHBII broth at a final concentration of 3%. Where LHB was used, it was added after filtering.
Broth microdilution susceptibility testing in 96-well microplates was conducted in accordance with CLSI methods (1) and (2). Automated liquid handlers were used to conduct serial dilutions and liquid transfers, including the Multidrop 384 (Labsystems, Helsinki, Finland), Biomek 2000, and the Biomek FX (Beckman Coulter, Fullerton, Calif.). All wells in columns 2 through 12 of a standard 96-well microdilution plate (Costar 3795) were filled with 150 μL of the appropriate diluent. Then, 300 μL of the test agents were added to the wells of column 1 of the plates at 100× the highest final concentration to be tested. Serial two-fold dilutions were made across the rows through column 11 using the Biomek 2000. The wells of column 12 contained no drug and served as the growth control wells. This plate served as the “mother plate” from which MIC assay plates or “daughter plates” were made.
The daughter plates were loaded with 190 μL per well of the appropriate medium using the Multidrop 384. The daughter plates were created using the Biomek FX which transferred 2 μL of drug solution from each well of a mother plate to each corresponding well of the daughter plate in a single step. A standardized inoculum of each test organism was prepared per CLSI methods (1) to equal a 0.5 McFarland standard, followed by a dilution of 1:20 for aerobes and 1:10 for anaerobes. The plates were then inoculated with 10 μL of the diluted inoculum using the Biomek 2000 from low to high drug concentration, resulting in a final concentration of approximately 5×10^5 CFU/mL per well. An un-inoculated plate was incubated in parallel for each medium for the purpose of assessing solubility of the drug in the test media.
Inoculated plates were stacked 3 or 4 high, covered with a sterile lid on the top plate, placed into boxes with CO2 planchets (streptococci) or plastic bags (all other isolates). Plates were incubated at 35° C. for 16-24 hr in ambient air for aerobes or for 42-48 hr in the anaerobic environment of the Bactron II anaerobe chamber (Sheldon Manufacturing Co.; Cornelius, Oreg.). Following incubation, the microplates were removed from the incubator and viewed from the bottom using a plate viewer. The MIC values were read and recorded as the lowest concentration of drug that inhibited visible growth of the organism as per CLSI methods (1) and (2).

S. pneumoniae ATCC 49619 = conditions: cited from earlier work
Bacteroides fragilis = assay: Agar dilution MIC, 30 clinical isolates; assay type: cell-based
Proteus mirabilis = assay: Broth microdilution MIC, 50 clinical isolates; assay type: cell-based
Procedure, shortened: (§1)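 CLSI broth microdilution in cation-adjusted Mueller Hinton broth, with 3% lysed horse blood added for streptococci. Two-fold dilutions, inoculum ~5×10^5 CFU/mL, 35° C for 16-24 hr in ambient air (streptococci with CO2 planchets). MIC = lowest concentration inhibiting visible growth.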

Enterobacter aerogenes = assay: Broth microdilution MIC, 50 clinical isolates; assay type: cell-based
Procedure, shortened: as §1

Pseudomonas aeruginosa = assay: Broth microdilution MIC, 50 clinical isolates; assay type: cell-based
Procedure, shortened: as §1

[1] = 30 Bacteroides fragilis clinical isolates

## CO/N=C(\C(=O)N[C@@H]1C(=O)N2C(C(=O)O)=C(CSc3nc(=O)c(=O)[nH]n3C)CS[C@H]12)c1csc(N)n1 [ceftriaxone]
E. coli ATCC 25922
  time-kill kinetics outcome (bactericidal = ≥3 log reduction in CFU per mL): bactericidal at 8×MIC at 24 hr
Klebsiella spp.
  % I: 6%
  % R: 28%
  % S: 66%
  Mode: 0.06 µg/mL
Klebsiella spp.; 0.015 μg/mL
  Cumulative percentage of isolates at MIC: 2.0%
  Number of test isolates at MIC: 1
Klebsiella spp.; 0.03 μg/mL
  Cumulative percentage of isolates at MIC: 12.0%
  Number of test isolates at MIC: 5
Klebsiella spp.; 0.06 μg/mL
  Cumulative percentage of isolates at MIC: 14.0%
  Number of test isolates at MIC: 16
Klebsiella spp.; 0.5 μg/mL
  Cumulative percentage of isolates at MIC: 64.0%
  Number of test isolates at MIC: 1
Klebsiella spp.; 1 μg/mL
  Cumulative percentage of isolates at MIC: 66.0%
  Number of test isolates at MIC: 1
Klebsiella spp.; 2 μg/mL
  Cumulative percentage of isolates at MIC: 72.0%
  Number of test isolates at MIC: 3
Klebsiella spp.; 8 μg/mL
  Cumulative percentage of isolates at MIC: 76.0%
  Number of test isolates at MIC: 2
Klebsiella spp.; 32 μg/mL
  Cumulative percentage of isolates at MIC: 80.0%
  Number of test isolates at MIC: 2
Klebsiella spp.; >128 μg/mL
  Cumulative percentage of isolates at MIC: 100.0%
  Number of test isolates at MIC: 10
Klebsiella spp.; Klebsiella
  MIC90: > 128 mg/L
Klebsiella spp.; Klebsiella, read-out: MIC50
  MIC50: 0.12 mg/L (≈ 0.216 µM)
Klebsiella spp.; listed as CTR
  % I: 6%
  % R: 28%
  MIC90: >128 mg/L
S. pneumoniae ATCC 49619
  CLSI QC range (MIC): (0.03-0.12) μg/mL
Bacteroides fragilis
  isolates resistant: Thirty-three
  isolates with intermediate resistance: 27%
Bacteroides fragilis; [1]
  % I: 27%
  % R: 33%
  % S: 40%
  MIC50: 32 mg/L (≈ 57.7 µM)
  MIC90: >128 mg/L
  MIC range: 8 to 128 mg/L
Bacteroides fragilis; Bacteroides fragilis, read-out: MIC50
  MIC50: 32 mg/L (≈ 57.7 µM)
Bacteroides fragilis; Bacteroides fragilis, read-out: MIC90
  MIC90: > 128 mg/L
Bacteroides fragilis; modal MIC, 30 Bacteroides fragilis clinical isolates
  Mode: 16 µg/mL
Proteus mirabilis
  % R: Six
  % S: 94%
  Mode: 0.004 µg/mL
Proteus mirabilis; 0.004 μg/mL
  Cumulative percentage of isolates inhibited at MIC: 62.0%
  Number of test isolates at MIC: 21
Proteus mirabilis; 0.008 μg/mL
  Cumulative percentage of isolates inhibited at MIC: 84.0%
  Number of test isolates at MIC: 11
Proteus mirabilis; 0.015 μg/mL
  Cumulative percentage of isolates inhibited at MIC: 86.0%
  Number of test isolates at MIC: 1
Proteus mirabilis; 0.03 μg/mL
  Cumulative percentage of isolates inhibited at MIC: 88.0%
  Number of test isolates at MIC: 1
Proteus mirabilis; 0.06 μg/mL
  Cumulative percentage of isolates inhibited at MIC: 92.0%
  Number of test isolates at MIC: 2
Proteus mirabilis; 1 μg/mL
  Cumulative percentage of isolates inhibited at MIC: 94.0%
  Number of test isolates at MIC: 1
Proteus mirabilis; 4 μg/mL
  Cumulative percentage of isolates inhibited at MIC: 96.0%
  Number of test isolates at MIC: 1
Proteus mirabilis; 8 μg/mL
  Cumulative percentage of isolates inhibited at MIC: 98.0%
  Number of test isolates at MIC: 1
Proteus mirabilis; >128 μg/mL
  Cumulative percentage of isolates inhibited at MIC: 100.0%
  Number of test isolates at MIC: 1
Proteus mirabilis; Proteus mirabilis, read-out: MIC50
  MIC50: 0.004 mg/L (≈ 0.00721 µM)
Proteus mirabilis; Proteus mirabilis, read-out: MIC90
  MIC90: 0.06 mg/L (≈ 0.108 µM)
Proteus mirabilis; listed as CTR
  % R: 6%^
Proteus mirabilis; ≤0.002 μg/mL
  Cumulative percentage of isolates inhibited at MIC: 20.0%
  Number of test isolates at MIC: 10
Enterobacter aerogenes
  % R: 26%
  % S: 74%
  MIC range: 0.03 to 64 mg/L
  Mode: 0.06 µg/mL
Enterobacter aerogenes; 0.03 μg/mL
  Cumulative percentage of isolates inhibited at MIC: 6.0%
  Number of test isolates at MIC: 3
Enterobacter aerogenes; 0.06 μg/mL
  Cumulative percentage of isolates inhibited at MIC: 42.0%
  Number of test isolates at MIC: 18
Enterobacter aerogenes; 1 μg/mL
  Cumulative percentage of isolates inhibited at MIC: 74.0%
  Number of test isolates at MIC: 2
Enterobacter aerogenes; 8 μg/mL
  Cumulative percentage of isolates inhibited at MIC: 78.0%
  Number of test isolates at MIC: 2
Enterobacter aerogenes; 16 μg/mL
  Cumulative percentage of isolates inhibited at MIC: 86.0%
  Number of test isolates at MIC: 4
Enterobacter aerogenes; 32 μg/mL
  Cumulative percentage of isolates inhibited at MIC: 94.0%
  Number of test isolates at MIC: 4
Enterobacter aerogenes; 64 μg/mL
  Cumulative percentage of isolates inhibited at MIC: 100.0%
  Number of test isolates at MIC: 3
Enterobacter aerogenes; Klebsiella aerogenes, read-out: MIC50
  MIC50: 0.12 mg/L (≈ 0.216 µM)
Enterobacter aerogenes; Klebsiella aerogenes, read-out: MIC90
  MIC90: 32 mg/L (≈ 57.7 µM)
Enterobacter aerogenes; listed as CTR
  % R: 26%
Pseudomonas aeruginosa; 4 μg/mL
  Cumulative percentage of isolates inhibited at MIC: 2.0%
  Number of test isolates at MIC: 1
Pseudomonas aeruginosa; 8 μg/mL
  Cumulative percentage of isolates inhibited at MIC: 10.0%
  Number of test isolates at MIC: 4
Pseudomonas aeruginosa; 16 μg/mL
  Cumulative percentage of isolates inhibited at MIC: 16.0%
  Number of test isolates at MIC: 3
Pseudomonas aeruginosa; 32 μg/mL
  Cumulative percentage of isolates inhibited at MIC: 36.0%
  Number of test isolates at MIC: 10
Pseudomonas aeruginosa; 64 μg/mL
  Cumulative percentage of isolates inhibited at MIC: 58.0%
  Number of test isolates at MIC: 11
Pseudomonas aeruginosa; 128 μg/mL
  Cumulative percentage of isolates inhibited at MIC: 72.0%
  Number of test isolates at MIC: 7
Pseudomonas aeruginosa; >128 μg/mL
  Cumulative percentage of isolates inhibited at MIC: 100.0%
  Number of test isolates at MIC: 14
Pseudomonas aeruginosa; Pseudomonas aeruginosa, read-out: MIC50
  MIC50: 64 mg/L (≈ 115 µM)
Pseudomonas aeruginosa; Pseudomonas aeruginosa, read-out: MIC90
  MIC90: > 128 mg/L
Pseudomonas aeruginosa; listed as CTR
  MIC90: >128 mg/L
